Test results reported in patent publication US20250059231A1, “Protease inhibitors” (priority 2021, published 2025).
Where a SMILES comes first, the peptide text is derived from it. [ ]: non-standard residue; d: D form. The star is where a group is joined. Palmitoyl = CCCCCCCCCCCCCCCC(=O)*; hPhe = N[C@@H](CCc1ccccc1)C(=O)O; β3hK = NCCCC[C@H](N)CC(=O)O

These compounds were tested against T1, DENV protease (Dengue virus type 2, UniProt P29990) (assay: biochemical). Conditions: at 50 μM; read-out: inhibition of DENV.
T1 construct: The virus-encoded dengue protease comprises the amino-terminal 180 amino acids of NS3 (NS3pro) of the polyprotein
T1 sequence (P29990 1398-1437): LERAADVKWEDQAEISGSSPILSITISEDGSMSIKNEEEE
T1 sequence (P29990 1476-1653): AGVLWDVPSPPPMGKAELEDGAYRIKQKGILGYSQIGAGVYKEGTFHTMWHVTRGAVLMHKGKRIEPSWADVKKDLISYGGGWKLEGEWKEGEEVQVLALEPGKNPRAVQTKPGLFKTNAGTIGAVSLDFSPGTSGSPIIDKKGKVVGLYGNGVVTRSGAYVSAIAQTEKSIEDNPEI
Summary of the method: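 DENV protease (100 nM) was pre-incubated 15 min with inhibitors in 50 mM Tris-HCl pH 9.0, 10% ethylene glycol, 0.0016% Brij 58. FRET substrate (50 μM final) started the reaction, monitored 15 min as RFU/s slope. IC50 came from triplicate means versus concentration.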
For `CCCCCCCCCCCCCCCC(=O)N[C@H](CCCCN)C(=O)N[C@@H](C)C(=O)N[C@@H](C)C(=O)N[C@@H](CCCCN)C(N)=O` [compound 115] (Palmitoyl-[dK]AAK-NH2), the inhibition at 50 µM was ≥ 25%. For `CCCCCCCCCCCCCCCC(=O)N[C@@H](CCCCN)CC(=O)N1CCC[C@H]1C(=O)N[C@@H](C)C(=O)N[C@@H](Cc1ccccc1)C(N)=O` [compound 116] (Palmitoyl-[β3hK]PAF-NH2), the inhibition at 50 µM was ≥ 25%. `CCCCCCCCCCCCCCCC(=O)N[C@@H](CCCCN)CC(=O)N1CCC[C@H]1C(=O)N[C@@H](C)C(=O)N[C@@H](CCc1ccccc1)C(N)=O` [compound 117] (Palmitoyl-[β3hK]PA[hPhe]-NH2) was tested, and the inhibition at 50 µM was ≥ 25%.

These compounds were tested against T2, WNV protease (West Nile virus, UniProt P06935) (assay: WNV protease assay (analogous procedure)). Conditions: at 50 μM.
T2 construct: a trypsin-like serine protease domain in the N-terminal region of the flaviviral NS3 proteins
T2 sequence (P06935 1424-1463): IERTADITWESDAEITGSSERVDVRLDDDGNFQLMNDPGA
T2 sequence (P06935 1502-1679): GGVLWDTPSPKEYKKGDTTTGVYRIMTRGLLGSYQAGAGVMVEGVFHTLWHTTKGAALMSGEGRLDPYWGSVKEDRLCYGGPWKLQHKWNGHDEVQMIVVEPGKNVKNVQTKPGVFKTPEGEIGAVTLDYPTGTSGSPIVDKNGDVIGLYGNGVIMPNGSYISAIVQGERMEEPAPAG
Format: biochemical
Description: (§1) By catalytic activity of the protease, the cleaved substrate results in increased fluorescence that can be monitored using a BMG Labtech Fluostar OPTIMA Microtiter fluorescence plate reader (excitation wavelength of 320 nm and a monitored emission wavelength of 405 nm). Dilutions were made starting from 10 mM stock solutions in DMSO and final concentrations were measured in triplicates. The inhibitors were preincubated for 15 min with DENV protease (100 nM) in the assay buffer (50 mM Tris-HCl pH 9.0, ethylene glycol (10% v/v), and 0.0016% Brij 58). The enzymatic reaction was initiated by the addition of the FRET substrate (final concentration 50 μM) to obtain a final assay volume of 100 μL per well. The enzymatic activity was monitored for 15 min and determined as a slope of relative fluorescence units per second (RFU/s) for each concentration. The mean of the triplicates were plotted against the corresponding concentration in CDDVault to determine the IC50-values. Analogous procedures were used to determine the inhibitory potency on WNV (Kühl et al., J. Med. Chem. 2020, 63 (15): 8179-8197) and ZIKA protease (Nitsche et al., ACS Med. Chem. Lett. 2019 Feb. 14; 10 (2): 168-174). For selectivity screening of active candidates, similar biochemical assays with human serine proteases trypsin (Weigel et al., J. Med. Chem. 2015, 58 (19), 7719-7733.) and/or thrombin (Nitsche et al., J. Med. Chem. 2013, 56 (21), 8389-8403) were used.
`CCCCCCCCCCCCCCCC(=O)N[C@H](CCCCN)C(=O)N[C@@H](C)C(=O)N[C@@H](C)C(=O)N[C@@H](CCCCN)C(N)=O` [compound 115] (Palmitoyl-[dK]AAK-NH2) was tested, and the inhibition at 50 µM was ≥ 25%. In the case of `CCCCCCCCCCCCCCCC(=O)N[C@@H](CCCCN)CC(=O)N1CCC[C@H]1C(=O)N[C@@H](C)C(=O)N[C@@H](Cc1ccccc1)C(N)=O` [compound 116] (Palmitoyl-[β3hK]PAF-NH2), the inhibition at 50 µM is reported as ≥ 25%. In the case of `CCCCCCCCCCCCCCCC(=O)N[C@@H](CCCCN)CC(=O)N1CCC[C@H]1C(=O)N[C@@H](C)C(=O)N[C@@H](CCc1ccccc1)C(N)=O` [compound 117] (Palmitoyl-[β3hK]PA[hPhe]-NH2), the inhibition at 50 µM is reported as ≥ 25%.

The compounds below were run against T3, ZIKA protease (Zika virus, UniProt Q32ZE1) (assay: biochemical). Conditions: not given.
T3 construct: a trypsin-like serine protease domain in the N-terminal region of the flaviviral NS3 proteins
T3 sequence (Q32ZE1 1499-1676): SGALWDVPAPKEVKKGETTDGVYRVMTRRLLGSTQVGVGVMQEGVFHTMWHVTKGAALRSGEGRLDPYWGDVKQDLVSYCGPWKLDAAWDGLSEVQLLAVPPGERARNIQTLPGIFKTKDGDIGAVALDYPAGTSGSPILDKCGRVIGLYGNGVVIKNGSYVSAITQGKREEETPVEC
T3 sequence (Q32ZE1 1421-1460): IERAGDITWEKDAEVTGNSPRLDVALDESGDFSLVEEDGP
Description: as §1
With `CCCCCCCCCCCCCCCC(=O)N[C@H](CCCCN)C(=O)N[C@@H](C)C(=O)N[C@@H](C)C(=O)N[C@@H](CCCCN)C(N)=O` [compound 115] (Palmitoyl-[dK]AAK-NH2) the IC50 was ≤ 25 µM. In the case of `CCCCCCCCCCCCCCCC(=O)N[C@@H](CCCCN)CC(=O)N1CCC[C@H]1C(=O)N[C@@H](C)C(=O)N[C@@H](Cc1ccccc1)C(N)=O` [compound 116] (Palmitoyl-[β3hK]PAF-NH2), the IC50 is reported as ≤ 25 µM. `CCCCCCCCCCCCCCCC(=O)N[C@@H](CCCCN)CC(=O)N1CCC[C@H]1C(=O)N[C@@H](C)C(=O)N[C@@H](CCc1ccccc1)C(N)=O` [compound 117] (Palmitoyl-[β3hK]PA[hPhe]-NH2) was tested, and the IC50 was ≤ 25 µM.

Same assay, conditions: at 1 μM; read-out: inhibition of ZIKV
For `CCCCCCCCCCCCCCCC(=O)N[C@H](CCCCN)C(=O)N[C@@H](C)C(=O)N[C@@H](C)C(=O)N[C@@H](CCCCN)C(N)=O` [compound 115] (Palmitoyl-[dK]AAK-NH2), the inhibition at 1 µM was ≥ 10%. For `CCCCCCCCCCCCCCCC(=O)N[C@@H](CCCCN)CC(=O)N1CCC[C@H]1C(=O)N[C@@H](C)C(=O)N[C@@H](Cc1ccccc1)C(N)=O` [compound 116] (Palmitoyl-[β3hK]PAF-NH2), the inhibition at 1 µM was ≥ 10%. For `CCCCCCCCCCCCCCCC(=O)N[C@@H](CCCCN)CC(=O)N1CCC[C@H]1C(=O)N[C@@H](C)C(=O)N[C@@H](CCc1ccccc1)C(N)=O` [compound 117] (Palmitoyl-[β3hK]PA[hPhe]-NH2), the inhibition at 1 µM was ≥ 10%.

Same assay, conditions: at 50 μM; read-out: inhibition of ZIKV
With `CCCCCCCCCCCCCCCC(=O)N[C@H](CCCCN)C(=O)N[C@@H](C)C(=O)N[C@@H](C)C(=O)N[C@@H](CCCCN)C(N)=O` [compound 115] (Palmitoyl-[dK]AAK-NH2) the inhibition at 50 µM was ≥ 65%. With `CCCCCCCCCCCCCCCC(=O)N[C@@H](CCCCN)CC(=O)N1CCC[C@H]1C(=O)N[C@@H](C)C(=O)N[C@@H](Cc1ccccc1)C(N)=O` [compound 116] (Palmitoyl-[β3hK]PAF-NH2) the inhibition at 50 µM was ≥ 65%. `CCCCCCCCCCCCCCCC(=O)N[C@@H](CCCCN)CC(=O)N1CCC[C@H]1C(=O)N[C@@H](C)C(=O)N[C@@H](CCc1ccccc1)C(N)=O` [compound 117] (Palmitoyl-[β3hK]PA[hPhe]-NH2) was tested, and the inhibition at 50 µM was ≥ 65%.

Each compound was assayed against human Thrombin (Homo sapiens, UniProt P00734) (assay: Selectivity screening, human serine protease thrombin). Conditions: at 5 μM; read-out: inhibition of human Thrombin.
Format: biochemical
Description: as §1
In the case of `CCCCCCCCCCCCCCCC(=O)N[C@H](CCCCN)C(=O)N[C@@H](C)C(=O)N[C@@H](C)C(=O)N[C@@H](CCCCN)C(N)=O` [compound 115] (Palmitoyl-[dK]AAK-NH2), the inhibition at 5 µM is reported as < 5%. For `CCCCCCCCCCCCCCCC(=O)N[C@@H](CCCCN)CC(=O)N1CCC[C@H]1C(=O)N[C@@H](C)C(=O)N[C@@H](Cc1ccccc1)C(N)=O` [compound 116] (Palmitoyl-[β3hK]PAF-NH2), the inhibition at 5 µM was < 5%. For `CCCCCCCCCCCCCCCC(=O)N[C@@H](CCCCN)CC(=O)N1CCC[C@H]1C(=O)N[C@@H](C)C(=O)N[C@@H](CCc1ccccc1)C(N)=O` [compound 117] (Palmitoyl-[β3hK]PA[hPhe]-NH2), the inhibition at 5 µM was < 5%.

The compounds below were run against human Trypsin (Homo sapiens, UniProt P07477) (assay: Selectivity screening, human serine protease trypsin). Conditions: at 5 μM; read-out: inhibition of human Trypsin.
Format: biochemical
Description: as §1
For `CCCCCCCCCCCCCCCC(=O)N[C@H](CCCCN)C(=O)N[C@@H](C)C(=O)N[C@@H](C)C(=O)N[C@@H](CCCCN)C(N)=O` [compound 115] (Palmitoyl-[dK]AAK-NH2), the inhibition at 5 µM was < 10%. For `CCCCCCCCCCCCCCCC(=O)N[C@@H](CCCCN)CC(=O)N1CCC[C@H]1C(=O)N[C@@H](C)C(=O)N[C@@H](Cc1ccccc1)C(N)=O` [compound 116] (Palmitoyl-[β3hK]PAF-NH2), the inhibition at 5 µM was < 10%. With `CCCCCCCCCCCCCCCC(=O)N[C@@H](CCCCN)CC(=O)N1CCC[C@H]1C(=O)N[C@@H](C)C(=O)N[C@@H](CCc1ccccc1)C(N)=O` [compound 117] (Palmitoyl-[β3hK]PA[hPhe]-NH2) the inhibition at 5 µM was < 10%.

Same assay, conditions: at 25 μM; read-out: inhibition of human Trypsin
In the case of `CCCCCCCCCCCCCCCC(=O)N[C@H](CCCCN)C(=O)N[C@@H](C)C(=O)N[C@@H](C)C(=O)N[C@@H](CCCCN)C(N)=O` [compound 115] (Palmitoyl-[dK]AAK-NH2), the inhibition at 25 µM is reported as < 20%. `CCCCCCCCCCCCCCCC(=O)N[C@@H](CCCCN)CC(=O)N1CCC[C@H]1C(=O)N[C@@H](C)C(=O)N[C@@H](Cc1ccccc1)C(N)=O` [compound 116] (Palmitoyl-[β3hK]PAF-NH2) was tested, and the inhibition at 25 µM was < 20%. `CCCCCCCCCCCCCCCC(=O)N[C@@H](CCCCN)CC(=O)N1CCC[C@H]1C(=O)N[C@@H](C)C(=O)N[C@@H](CCc1ccccc1)C(N)=O` [compound 117] (Palmitoyl-[β3hK]PA[hPhe]-NH2) was tested, and the inhibition at 25 µM was < 20%.

The compounds below were run against T2, WNV protease (assay: WNV protease assay (analogous procedure)). Conditions: read-out: IC50 for WNNV.
Format: biochemical
`CCCCCCCCCCCCCCCC(=O)N[C@H](CCCCN)C(=O)N[C@@H](C)C(=O)N[C@@H](C)C(=O)N[C@@H](CCCCN)C(N)=O` [compound 115] (Palmitoyl-[dK]AAK-NH2) was tested, and the IC50 was ≤ 40 µM. With `CCCCCCCCCCCCCCCC(=O)N[C@@H](CCCCN)CC(=O)N1CCC[C@H]1C(=O)N[C@@H](C)C(=O)N[C@@H](Cc1ccccc1)C(N)=O` [compound 116] (Palmitoyl-[β3hK]PAF-NH2) the IC50 was ≤ 40 µM. For `CCCCCCCCCCCCCCCC(=O)N[C@@H](CCCCN)CC(=O)N1CCC[C@H]1C(=O)N[C@@H](C)C(=O)N[C@@H](CCc1ccccc1)C(N)=O` [compound 117] (Palmitoyl-[β3hK]PA[hPhe]-NH2), the IC50 was ≤ 40 µM.
